Common to all, as to format: functional
The subject of one test is TK-10. The test is described as follows: Growth inhibition of human TK10 cells assessed as cell growth at 10^-6 M incubated for 48 hrs by sulforhodamine B assay relative to control. As to conditions: TK-10, 48 h, read-out: Activity.
Another test concerns NCI-H460. The experiment in a line: Growth inhibition of human NCI-H460 cells assessed as cell growth at 10^-4 M incubated for 48 hrs by sulforhodamine B assay relative to control. As to conditions: NCI-H460, 48 h, read-out: Activity.
Another test concerns Hs-578T. The test is described as follows: Growth inhibition of human Hs 578T cells assessed as cell growth at 10^-5 M incubated for 48 hrs by sulforhodamine B assay relative to control. As to conditions: read-out: Activity. Background: In SRB staining, fixed cells bind dye roughly in proportion to their protein.
The subject of a further test is NCI-H522. The experiment in a line: Growth inhibition of human NCI-H522 cells assessed as cell growth at 10^-7 M incubated for 48 hrs by sulforhodamine B assay relative to control. As to conditions: NCI-H522, 48 h, read-out: Activity.
In another test the test system is SK-MEL-5. The experiment in a line: Growth inhibition of human SK-MEL-5 cells assessed as cell growth at 10^-6 M incubated for 48 hrs by sulforhodamine B assay relative to control. As to conditions: SK-MEL-5, 48 h, read-out: Activity.

The structures appear in SMILES notation.

Consider `CCCCOc1nc2ccccc2cc1C1CNC(=O)c2ccccc2N1` (stereo not given), for which the growth at 1 µM turned out to be 92% with TK-10 and 73% in the test with SK-MEL-5. Further, in the test with NCI-H460, the growth at 100 µM was -73%. The growth at 10 µM in the test on Hs-578T came out at 28%. Also, the growth at 0.1 µM in the test on NCI-H522 is 107%.

The values are drawn from ChEMBL document CHEMBL4138146, “A Schmidt rearrangement-mediated synthesis of novel tetrahydro-benzo[1,4]diazepin-5-ones as potential anticancer and antiprotozoal agents” (Eur J Med Chem, 2017).
